Reference: US7745465B2, “Method of enhancing cellular production of molecular chaperone, hydroxylamine derivatives useful for enhancing the chaperone production and the preparation thereof” (CytRx Corporation, priority 1995, dated 2010)

Tests used:
[1] = system: human skin grafted on severe combined immunodeficiency disease (SCID) mice; experiment: UVB light induced skin injury in human skin grafted SCID mice; format: in vivo, mouse; details: 5.0 mg/kg i.p. for 7 days
Experimental: Human skin tissues were grafted onto immunodeficiency (SCID) mice. The experimental protocol involved a treatment of one group of the mice with N-[2-hydroxy-3-(1-piperidinyl)propoxy]-3-piridinecarboxymidoyl chloride maleate (5.0 mg/kg i.p.) and the other with the solvent NaCl solution (300 μl) for 7 days. On day 8, both groups of mice were exposed to UVB light (100 mJ/cm^2) 24 hours subsequent to the exposure, skin biopsies were taken for histological (sections stained with hematoxylin and eosin), and immunohistological examinations (indirect immunoflourescence technique with monoclonal antibody, mAB).
(i) Human skin transplanted SCID mice treated by N-[2-hydroxy-3-(1-piperidinyl)propoxy]-3-piridinecarboximidoyl chloride maleate (5.0 mg/kg i.p.) or vehicle were exposed to UVB light (100 mJ/cm^2). After 24 h skin biopsies were taken for histological examination and for hsp72 determination using immunohistological and Western blotting techniques.

Hsp72 = experiment: Western blot of hsp72 in heat shocked H9c2 cells; format: cell-based, rat
Experimental: Experiments set forth in this section were conducted to determine whether N-[2-hydroxy-3-(1-piperidinyl)propoxy]-3-pyridinecarboximidoyl chloride maleate acts to increase the expression of molecular chaperon by a cell. The accumulation of different heat shock proteins subsequent to a period of exposure to heat shock alone, and to heat shock in combination with N-[2-hydroxy-3-(1-piperidinyl)propoxy]-3-pyridinecarboximidoyl chloride maleate administration, was examined by adding 10^−5 M of N-[2-hydroxy-3-(1-piperidinyl)propoxy]-3-pyridinecarboximidoyl chloride maleate before, during, or immediately after hyperthermic treatment of heart myogenic cells (H9c2 cells).
The embryonic rat heart-derived cell line H9c2 was obtained from European Collection of Animal cell Cultures (ECACC) (88092904). The cells were maintained at 37° C. in Dulbecco's modified Eagle's medium (DMEM) supplemented with 10% fetal calf serum (GIBCO) in JOUAN C02 thermostat (5% CO2).
Heat shock was performed at 43° C. in CO2 thermostat for the given time intervals (20, 40, 60, 90 and 120 min.). Cells were then taken back to 37° C. for 6 hours and proteins were extracted for SDS-PAGE. […]
Protein concentration was determined from 5:1 samples by the Bradford assay (M. M. Braford, Anal. Biochem., 72: 248-254 (1976)) in three parallel. […]

HaCaT cells = experiment: Protection of HaCaT keratinocytes against 48° C. heat exposure (viability); format: cell-based, human
Excerpt: HaCaT cell line is a spontaneously immortalized, ancuploid human keratinocyte cell line derived from normal human adult skin (Boukamp et al., J. Cell Biol. 106:761-771 (1988)), HaCaT is a cell line with full epidermal differentiation capacity, with normal keratinization and with nontumorogenic character. This rapidly multiplying keratinocyte line with high ditharnol sensitivity is also characterized by the presence of steroid receptors. HaCaT cells (4×10^5 cells per Petri-dish with a diameter of 35 mm) were seeded and grown in DMEM supplemented with 5% fetal calf serum (Gibco, Cat. No. 011-6290H) under a humidified atmosphere of 5% CO2 at 37° C. 24 hours after plating, the cultures were rinsed with PBS and treated by heat or light.
The confluent cultures of the cells were exposed to heat (42, 44, 46, 47, 48° C.) or UV light (UVA I, 2, 4, 6 J/cm^2). Heat exposure was provided in circulating water baths. As a UV light source, Waldmann PUVA 4000 was used with an energy spectrum of the final output between 320 an 390 nm, peaking at 365 nm. The energy output was monitored by an IL-1700 radiometer equipped with UVA and UVB sensor.
The morphology of the cells was monitored using phase contrast microscopy (Opton Axioplan Microscope, with Plan-Apochromat Ph phase contrast objectives). […]

## O=C(O)/C=C\C(=O)O.OC(CON=C(Cl)c1cccnc1)CN1CCCCC1 (stereo not drawn) [N-[2-hydroxy-3-(1-piperidinyl)-propoxy]3-pyridinecarboximidoyl chloride maleate]
[1]; UVB 100 mJ/cm^2, listed as N-[2-hydroxy-3-(1-piperidinyl)propoxy]-3-piridinecarboximidoyl chloride maleate
  clinical signs of injuries due to UV exposure: prevented UVB light induced skin injury
[1]; UVB 100 mJ/cm^2, listed as N-[2-hydroxy-3-(1-piperidinyl)propoxy]-3-piridinecarboxymidoyl chloride maleate
  clinical signs of injuries due to UV exposure: clinical signs of injuries due to UV exposure could not be observed
Hsp72; added during the recovery phase
  effect on hsp72 level: also effective though to a lesser degree
Hsp72; administration before heat stress, 60 min. heat stress
  hsp72 level increased when comparing to 37° C. samples: about 50 times
HaCaT cells; combined treatment with 42° C. and compound, 24 hours after 48° C.
  increase in viability: 140%
HaCaT cells; pre-treatment 5×10^-5 M for one hour, 24 hours after the 48° C. treatment
  cell viability increased to: 84%
